The values that follow are results of earlier work, collected in patent US8877241B2 (Egalet Ltd., priority 2003, dated 2014).

The conditions of this data set: single dose of 10 mg oral morphine, plain tablet composition.

Take `CN1CC[C@]23c4c5ccc(O)c4O[C@H]2[C@@H](O)C=C[C@H]3[C@H]1C5` [morphine]: the “average duration of action” value is 4 to 5 h.
